Data reported in patent publication US20260217706A1, “HETEROCYCLIC COMPOUNDS, PREPARATION METHOD THEREFOR AND USE THEREOF” (GUANGZHOU YUFAN NANTU BIOTECHNOLOGIES CO., LTD, priority 2023, published 2026).

Assays:
[1] = test system: anti-CD3 activated human PBMCs; experiment: Effect of compounds on the level of IL-2 secretion by anti-CD3 activated human PBMCs (IL-2 ELISA); type: cell-based; conditions: compound concentration at which fold change in IL-2 = 5; hPBMCs, CD3 antibody 2 μg/mL, 48 h, compound from 3 μM
Procedure: 2. Inoculate the resuspended cells into a 96-well cell culture plate at 200 ul/well of cell suspension, and incubate in a 37° C. cell incubator for 1 h;
3. Adjust the compound concentration with DMSO, starting at a final concentration of 3 μM, and perform a 3-fold dilution sequentially for 10 concentration gradients, with an additional DMSO control well set up; and
4. Adjust the CD3 antibody to an appropriate concentration to achieve a final concentration of 2 μg/mL, mix thoroughly, and incubate in a 37° C. cell incubator for 48h.
5. After 48 h, centrifuge at 1500 rpm for 5 min to collect the supernatant of the culture medium for the human IL-2 ELISA test.
The OD values obtained from the ELISA test are converted into the fold change (FC) in IL-2 concentration. […] The EC50 is calculated using GraphPad Prism. When the fold change=5, the corresponding compound concentration is CFC=5 (in nM).

CBL-B protein = CBL-B protein (Homo sapiens, UniProt Q13191); experiment: CBL-B binding experiment (Streptavidin-Tb cryptate / Ligand L1 displacement); conditions: 8 nM CBL-B protein, 25° C., 60 minutes; Ki=Relative IC50/2
Outline: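 Compounds in a 10-point DMSO series met 8 nM CBL-B protein in HEPES pH 7.5/NaCl/Triton/TCEP/BSA buffer at 25° C. for 60 min. A further 60 min at room temperature preceded the luminescence read, normalised to no-protein and DMSO wells. Ki was taken as relative IC50 divided by 2.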

CBL-B protein, sequence (Q13191 whole entry): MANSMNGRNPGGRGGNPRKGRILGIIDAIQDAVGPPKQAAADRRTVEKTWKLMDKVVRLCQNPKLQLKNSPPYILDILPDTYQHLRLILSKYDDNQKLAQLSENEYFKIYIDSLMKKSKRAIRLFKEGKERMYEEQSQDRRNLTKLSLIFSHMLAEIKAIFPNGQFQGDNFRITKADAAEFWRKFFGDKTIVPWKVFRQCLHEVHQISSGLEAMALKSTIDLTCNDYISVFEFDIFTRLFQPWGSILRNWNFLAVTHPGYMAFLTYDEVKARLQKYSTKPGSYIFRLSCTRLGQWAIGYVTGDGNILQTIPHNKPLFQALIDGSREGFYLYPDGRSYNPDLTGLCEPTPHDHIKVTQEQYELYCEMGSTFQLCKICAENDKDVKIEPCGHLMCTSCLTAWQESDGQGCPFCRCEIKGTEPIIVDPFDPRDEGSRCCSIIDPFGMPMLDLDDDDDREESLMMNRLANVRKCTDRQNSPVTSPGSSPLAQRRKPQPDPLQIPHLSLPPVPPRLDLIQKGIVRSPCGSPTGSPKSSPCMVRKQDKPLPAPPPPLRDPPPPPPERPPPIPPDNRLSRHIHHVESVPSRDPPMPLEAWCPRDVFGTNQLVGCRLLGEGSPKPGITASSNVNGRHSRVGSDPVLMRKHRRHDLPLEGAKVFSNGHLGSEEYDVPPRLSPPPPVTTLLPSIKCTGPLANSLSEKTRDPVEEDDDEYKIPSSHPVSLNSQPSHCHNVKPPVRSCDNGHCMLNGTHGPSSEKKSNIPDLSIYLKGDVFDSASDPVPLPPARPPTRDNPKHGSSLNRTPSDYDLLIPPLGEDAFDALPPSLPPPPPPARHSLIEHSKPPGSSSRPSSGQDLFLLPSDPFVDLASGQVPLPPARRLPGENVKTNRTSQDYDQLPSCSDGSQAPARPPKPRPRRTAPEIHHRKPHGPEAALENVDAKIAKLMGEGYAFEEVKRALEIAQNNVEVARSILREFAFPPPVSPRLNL

Row | Ki (CBL-B protein) [nM] | Compound | IL-2 CFC=5/nM [1] [nM]
1 | < 50 | Cn1cnnc1C1(c2cccc(-n3cc(C(F)(F)F)c4cc(CN5CCCC(C(F)F)C5)[nH]c4c3=O)c2)CCC1 (racemic) [Compound T114, 6-[3-[1-(4-methyl-1,2,4-triazol-3-yl)cyclobutyl]phenyl]-2-[[rac-(3S)-3-(difluoromethyl)-1-piperidyl]methyl]-4-(trifluoromethyl)-1H-pyrrolo[2,3-c]pyridin-7-one] | <500
2 | < 50 | CCN(C)Cc1cc2c(C(F)(F)F)cn(-c3cccc(C4(c5nncn5C)CCC4)c3)c(=O)c2[nH]1 [Compound T002, 2-((ethyl(methyl)amino)methyl)-6-(3-(1-(4-methyl-4H-1,2,4-triazol-3-yl)cyclobutyl)phenyl)-4-(trifluoromethyl)-1,6-dihydro-7H-pyrrolo[2,3-c]pyridin-7-one] | <500
3 | < 50 | CCN(CC)Cc1cc2c(C(F)(F)F)cn(-c3cccc(C4(c5nncn5C)CCC4)c3)c(=O)c2[nH]1 [Compound T005, 2-(diethylaminomethyl)-6-[3-[1-(4-methyl-1,2,4-triazol-3-yl)cyclobutyl]phenyl]-4-(trifluoromethyl)-1H-pyrrolo[2,3-c]pyridin-7-one] | <500
4 | < 50 | Cn1cnnc1C1(c2cccc(-n3cc(C(F)(F)F)c4cc(CN5CC6CC6C5)[nH]c4c3=O)c2)CCC1 (stereo not drawn) [Compound T007, 2-((3-azabicyclo[3.1.0]hexan-3-yl)methyl)-6-(3-(1-(4-methyl-4H-1,2,4-triazol-3-yl)cyclobutyl)phenyl)-4-(trifluoromethyl)-1,6-dihydro-7H-pyrrolo[2,3-c]pyridin-7-one] | <500
5 | < 50 | Cn1cnnc1C1(c2cccc(-n3cc(C(F)(F)F)c4cc(CNCCC5CC5)[nH]c4c3=O)c2)CCC1 [Compound T008, 2-[(2-cyclopropylethylamino)methyl]-6-[3-[1-(4-methyl-1,2,4-triazol-3-yl)cyclobutyl]phenyl]-4-(trifluoromethyl)-1H-pyrrolo[2,3-c]pyridin-7-one] | <500
6 | < 50 | Cn1cnnc1C1(c2cccc(-n3cc(C(F)(F)F)c4cc(CNC5(C)CCC5)[nH]c4c3=O)c2)CCC1 [Compound T009, 2-[[(1-methylcyclobutyl)amino]methyl]-6-[3-[1-(4-methyl-1,2,4-triazol-3-yl)cyclobutyl]phenyl]-4-(trifluoromethyl)-1H-pyrrolo[2,3-c]pyridin-7-one] | <500
7 | < 50 | C[C@H]1CCCN(Cc2cc3c(C4CC4)cn(-c4cccc(C5(Cc6nncn6C)CCC5)c4)c(=O)c3[nH]2)C1 [Compound T010, 4-cyclopropyl-2-[[(3S)-3-methyl-1-piperidyl]methyl]-6-[3-[1-[(4-methyl-1,2,4-triazol-3-yl)methyl]cyclobutyl]phenyl]-1H-pyrrolo[2,3-c]pyridin-7-one] | <500
8 |  | C[C@H]1CCCN(Cc2cc3c(C4CC4)cn(-c4cccc([C@]5(c6nncn6C)C[C@@H](C)C5)c4)c(=O)c3[nH]2)C1 [Compound T011, 4-cyclopropyl-6-(3-((1s,3R)-3-methyl-1-(4-methyl-4H-1,2,4-triazol-3-yl)cyclobutyl)phenyl)-2-(((S)-3-methylpiperidin-1-yl)methyl)-1,6-dihydro-7H-pyrrolo[2,3-c]pyridin-7-one] | <500
9 | < 50 | C[C@H]1CCCN(Cc2cc3c(C4CC4)cn(-c4cccc([C@@H](c5nncn5C)C5CCC5)c4)c(=O)c3[nH]2)C1 [Compound T013, 6-(3-((S)-cyclobutyl(4-methyl-4H-1,2,4-triazol-3-yl)methyl)phenyl)-4-cyclopropyl-2-(((S)-3-methylpiperidin-1-yl)methyl)-1,6-dihydro-7H-pyrrolo[2,3-c]pyridin-7-one] | <500
10 |  | C[C@H]1CCCN(Cc2cc3c(C4CC4)cn(-c4cccc([C@]5(c6nncn6C)C[C@H](C)C5)c4)c(=O)c3[nH]2)C1 [Compound T014, 4-cyclopropyl-6-(3-((1r,3S)-3-methyl-1-(4-methyl-4H-1,2,4-triazol-3-yl)cyclobutyl)phenyl)-2-(((S)-3-methylpiperidin-1-yl)methyl)-1,6-dihydro-7H-pyrrolo[2,3-c]pyridin-7-one] | <500
11 |  | Cn1cnnc1C1(c2cccc(-n3cc(C(F)(F)F)c4cc(CN5CC[C@H](F)C5)[nH]c4c3=O)c2)CCC1 [Compound T020, 2-[[(3S)-3-fluoropyrrolidin-1-yl]methyl]-6-[3-[1-(4-methyl-1,2,4-triazol-3-yl)cyclobutyl]phenyl]-4-(trifluoromethyl)-1H-pyrrolo[2,3-c]pyridin-7-one] | <500
12 |  | Cn1cnnc1C1(c2cccc(-n3cc(C(F)(F)F)c4cc(CN5CC[C@@H](F)C5)[nH]c4c3=O)c2)CCC1 [Compound T021, 2-[[(3R)-3-fluoropyrrolidin-1-yl]methyl]-6-[3-[1-(4-methyl-1,2,4-triazol-3-yl)cyclobutyl]phenyl]-4-(trifluoromethyl)-1H-pyrrolo[2,3-c]pyridin-7-one] | <500
13 |  | C[C@H]1CCCN(Cc2cc3c(C(F)(F)F)cn(-c4cccc([C@]5(c6nncn6C)C[C@H](C#N)C5)c4)c(=O)c3[nH]2)C1 [Compound T136, (1S,3r)-3-(4-methyl-4H-1,2,4-triazol-3-yl)-3-(3-(2-(((S)-3-methylpiperidin-1-yl)methyl)-7-oxo-4-(trifluoromethyl)-1,7-dihydro-6H-pyrrolo[2,3-c]pyridin-6-yl)phenyl)cyclobutane-1-carbonitrile] | <500
14 |  | C[C@H]1CCCN(Cc2cc3c(C(F)(F)F)cn(-c4cccc([C@]5(c6nncn6C)C[C@@H](C#N)C5)c4)c(=O)c3[nH]2)C1 [Compound T137, (1R,3s)-3-(4-methyl-4H-1,2,4-triazol-3-yl)-3-(3-(2-(((S)-3-methylpiperidin-1-yl)methyl)-7-oxo-4-(trifluoromethyl)-1,7-dihydro-6H-pyrrolo[2,3-c]pyridin-6-yl)phenyl)cyclobutane-1-carbonitrile] | <500
15 |  | C[C@H]1CCCN(Cc2cc3c(C(F)(F)F)cn(-c4cccc([C@]5(c6nncn6C)C[C@@H](CC#N)C5)c4)c(=O)c3[nH]2)C1 [Compound T139, 2-((1R,3s)-3-(4-methyl-4H-1,2,4-triazol-3-yl)-3-(3-(2-(((S)-3-methylpiperidin-1-yl)methyl)-7-oxo-4-(trifluoromethyl)-1,7-dihydro-6H-pyrrolo[2,3-c]pyridin-6-yl)phenyl)cyclobutyl)acetonitrile] | <500
16 |  | CO[C@H]1C[C@@](c2cccc(-n3cc(C(F)(F)F)c4cc(CN5CCC[C@H]6C[C@H]65)[nH]c4c3=O)c2)(c2nncn2C)C1 [Compound T183] | <500
17 |  | CO[C@H]1C[C@](c2cccc(-n3cc(C(F)(F)F)c4cc(CN5CCC[C@H]6C[C@H]65)[nH]c4c3=O)c2)(c2nncn2C)C1 [Compound T185] | <500

Row | Compound | Ki (CBL-B protein) [nM] | IL-2 CFC=5/nM [1] [nM]
18 | C[C@H]1CCCN(Cc2cc(C(F)(F)F)c3cn(-c4cccc([C@]5(c6nncn6C)C[C@@H](C)C5)c4)c(=O)n3c2)C1 (racemic) [Compound T140, 2-(3-((1s,3R)-3-methyl-1-(4-methyl-4H-1,2,4-triazol-3-yl)cyclobutyl)phenyl)-6-(((S)-3-methylpiperidin-1-yl)methy 1)-8-(trifluoromethyl)imidazo[1,5-a]pyridin-3(2H)-one] | < 50 | <500
